Test results reported in patent US20060083830A1, “Polylysine-containing food additive and acidic adjuvant” (priority 2004, published 2006).
“And” between values parts separate entries of the source, which are not always exact repeats. Identical values can stand only once.

Test system: Listeria monocytogenes
Experiment: L. monocytogenes on cooked ground turkey balls blended with ε-polylysine, vacuum packaged, stored at 10° C., CFU determination
Format: cell-based
Conditions: for Log Reduction: vs control Group A
Experimental: Six groups of 20 g ground uncooked turkey balls were prepared, with 27 balls prepared per group. […] Groups B-F were blended with varying amounts of ε-polylysine (“ε-PL”). Final concentrations of ε-polylysine within the turkey balls were:
After preparation, all meatballs were placed on baking sheets and baked in a conventional oven at 350° F. for 20 minutes. After baking, the meatballs were packaged separately and stored at 4° C.
The mixture was further diluted 1:10,000 times with sterile saline to produce a suspension for use.
20 microliters of the Listeria monocytogenes suspension was inoculated onto the exterior of each turkey ball. Turkey balls were incubated at room temperature for 30 min post-inoculation to allow bacteria to attach. Turkey balls were individually vacuum packaged and stored at 10° C.
The microbiological assay was performed after 3 hours, 24 hours, 1 week, 2 weeks, 3 weeks, 4 weeks, 5 weeks, 7 weeks, and 8 weeks. After each designated time period had passed, three bags from each group of meat balls were unpacked, transferred to a stomacher bag along with 20 ml of sterile 0.1% peptone water. Each meatball was hand crushed and stomached at high speed for 2 minutes. […] The letter “{overscore (A)}” denotes average.

poly(imino(2-amino-1-oxo-1,6-hexanediyl)) [ε-PL]
CFU/g (1000 ppm ε-PL, after 1 week): 5.35E+06 CFU/g and 3.75E+06 CFU/g and 4.05E+06 CFU/g
average Log Value (1000 ppm ε-PL, after 1 week): 6.64
average of CFU/g (1000 ppm ε-PL, after 1 week): 4.38E+06 CFU/g
Log Reduction (1000 ppm ε-PL, after 1 week): 1.64
average Log Value (1000 ppm ε-PL, after 2 weeks): 7.61
average of CFU/g (1000 ppm ε-PL, after 2 weeks): 4.09E+07 CFU/g
Log Reduction (1000 ppm ε-PL, after 2 weeks): 0.68
average Log Value (1000 ppm ε-PL, after 3 weeks): 6.73
average of CFU/g (1000 ppm ε-PL, after 3 weeks): 5.24E+06 CFU/g
Log Reduction (1000 ppm ε-PL, after 3 weeks): 1.66
average Log Value (1000 ppm ε-PL, after 4 weeks): 7.73
average of CFU/g (1000 ppm ε-PL, after 4 weeks): 5.42E+07 CFU/g
Log Reduction (1000 ppm ε-PL, after 4 weeks): 0.74
average Log Value (1000 ppm ε-PL, after 5 weeks): 7.98
average of CFU/g (1000 ppm ε-PL, after 5 weeks): 9.64E+07 CFU/g
Log Reduction (1000 ppm ε-PL, after 5 weeks): 0.44
average Log Value (1000 ppm ε-PL, after 7 weeks): 7.80
average of CFU/g (1000 ppm ε-PL, after 7 weeks): 6.33E+07 CFU/g
Log Reduction (1000 ppm ε-PL, after 7 weeks): 0.62
average Log Value (1000 ppm ε-PL, after 8 weeks): 7.66
average of CFU/g (1000 ppm ε-PL, after 8 weeks): 4.53E+07 CFU/g
Log Reduction (1000 ppm ε-PL, after 8 weeks): 0.68
CFU/g (1000 ppm ε-PL, after 3 hours): 2.34E+02 CFU/g and 1.54E+02 CFU/g and 1.56E+02 CFU/g
average Log Value (1000 ppm ε-PL, after 3 hours): 2.26
average of CFU/g (1000 ppm ε-PL, after 3 hours): 1.81E+02 CFU/g
Log Reduction (1000 ppm ε-PL, after 3 hours): 0.53
average Log Value (1000 ppm ε-PL, after 24 hours): 3.25
average of CFU/g (1000 ppm ε-PL, after 24 hours): 1.77E+03 CFU/g
Log Reduction (1000 ppm ε-PL, after 24 hours): >0.48
average Log Value (2000 ppm ε-PL, after 1 week): 4.74
average of CFU/g (2000 ppm ε-PL, after 1 week): 5.50E+04 CFU/g
Log Reduction (2000 ppm ε-PL, after 1 week): 3.54
average Log Value (2000 ppm ε-PL, after 2 weeks): 4.98
average of CFU/g (2000 ppm ε-PL, after 2 weeks): 9.57E+04 CFU/g
Log Reduction (2000 ppm ε-PL, after 2 weeks): 3.31
average Log Value (2000 ppm ε-PL, after 3 weeks): 4.68
average of CFU/g (2000 ppm ε-PL, after 3 weeks): 4.73E+04 CFU/g
Log Reduction (2000 ppm ε-PL, after 3 weeks): 3.72
average Log Value (2000 ppm ε-PL, after 4 weeks): >6.44
average of CFU/g (2000 ppm ε-PL, after 4 weeks): >2.76E+06 CFU/g
Log Reduction (2000 ppm ε-PL, after 4 weeks): <2.03
average Log Value (2000 ppm ε-PL, after 5 weeks): 5.90
average of CFU/g (2000 ppm ε-PL, after 5 weeks): 7.91E+05 CFU/g
Log Reduction (2000 ppm ε-PL, after 5 weeks): 2.53
average Log Value (2000 ppm ε-PL, after 7 weeks): 6.66
average of CFU/g (2000 ppm ε-PL, after 7 weeks): 4.53E+06 CFU/g
Log Reduction (2000 ppm ε-PL, after 7 weeks): 1.77
average Log Value (2000 ppm ε-PL, after 8 weeks): 6.19
average of CFU/g (2000 ppm ε-PL, after 8 weeks): 1.54E+06 CFU/g
Log Reduction (2000 ppm ε-PL, after 8 weeks): 2.15
CFU/g (2000 ppm ε-PL, after 3 hours): 1.94E+02 CFU/g and 1.96E+02 CFU/g and 1.50E+02 CFU/g
average Log Value (2000 ppm ε-PL, after 3 hours): 2.26
average of CFU/g (2000 ppm ε-PL, after 3 hours): 1.80E+02 CFU/g
Log Reduction (2000 ppm ε-PL, after 3 hours): 0.53
CFU/g (2000 ppm ε-PL, after 24 hours): 1.98E+02 CFU/g and 2.64E+02 CFU/g and 2.14E+02 CFU/g
average Log Value (2000 ppm ε-PL, after 24 hours): 2.35
average of CFU/g (2000 ppm ε-PL, after 24 hours): 2.25E+02 CFU/g
Log Reduction (2000 ppm ε-PL, after 24 hours): >1.37
post-lethality effect (3000 ppm): > 1 log
average Log Value (3000 ppm ε-PL, after 1 week): 1.00
average of CFU/g (3000 ppm ε-PL, after 1 week): 1.00E+01 CFU/g
Log Reduction (3000 ppm ε-PL, after 1 week): 7.28
average Log Value (3000 ppm ε-PL, after 2 weeks): 1.44
average of CFU/g (3000 ppm ε-PL, after 2 weeks): 2.73E+01 CFU/g
Log Reduction (3000 ppm ε-PL, after 2 weeks): 6.85
average Log Value (3000 ppm ε-PL, after 3 weeks): <1.67
average of CFU/g (3000 ppm ε-PL, after 3 weeks): <4.67E+01 CFU/g
Log Reduction (3000 ppm ε-PL, after 3 weeks): >6.72
average Log Value (3000 ppm ε-PL, after 4 weeks): <0.43
average of CFU/g (3000 ppm ε-PL, after 4 weeks): <2.67E+00 CFU/g
Log Reduction (3000 ppm ε-PL, after 4 weeks): >8.05
CFU/g (3000 ppm ε-PL, after 5 weeks): <2.00E+00 CFU/g
average Log Value (3000 ppm ε-PL, after 5 weeks): <0.30
average of CFU/g (3000 ppm ε-PL, after 5 weeks): <2.00E+00 CFU/g
Log Reduction (3000 ppm ε-PL, after 5 weeks): >8.12
average Log Value (3000 ppm ε-PL, after 7 weeks): <1.08
average of CFU/g (3000 ppm ε-PL, after 7 weeks): <1.20E+01 CFU/g
Log Reduction (3000 ppm ε-PL, after 7 weeks): >7.34
CFU/g (3000 ppm ε-PL, after 8 weeks): <2.00E+00 CFU/g
average Log Value (3000 ppm ε-PL, after 8 weeks): <0.30
average of CFU/g (3000 ppm ε-PL, after 8 weeks): <2.00E+00 CFU/g
Log Reduction (3000 ppm ε-PL, after 8 weeks): >8.03
average Log Value (3000 ppm ε-PL, after 3 hours): 1.51
average of CFU/g (3000 ppm ε-PL, after 3 hours): 3.20E+01 CFU/g
Log Reduction (3000 ppm ε-PL, after 3 hours): 1.28
CFU/g (3000 ppm ε-PL, after 24 hours): 5.00E+01 CFU/g and 6.40E+01 CFU/g and 7.20E+01 CFU/g
average Log Value (3000 ppm ε-PL, after 24 hours): 1.79
average of CFU/g (3000 ppm ε-PL, after 24 hours): 6.20E+01 CFU/g
Log Reduction (3000 ppm ε-PL, after 24 hours): >1.93
average Log Value (4000 ppm ε-PL, after 1 week): <0.52
average of CFU/g (4000 ppm ε-PL, after 1 week): <3.35E+00 CFU/g
Log Reduction (4000 ppm ε-PL, after 1 week): >7.76
CFU/g (4000 ppm ε-PL, after 2 weeks): <2.00E+00 CFU/g
average Log Value (4000 ppm ε-PL, after 2 weeks): <0.30
average of CFU/g (4000 ppm ε-PL, after 2 weeks): <2.00E+00 CFU/g
Log Reduction (4000 ppm ε-PL, after 2 weeks): >7.29
CFU/g (4000 ppm ε-PL, after 3 weeks): <2.00E+00 CFU/g
average Log Value (4000 ppm ε-PL, after 3 weeks): <0.3
average of CFU/g (4000 ppm ε-PL, after 3 weeks): <2.00E+00 CFU/g
Log Reduction (4000 ppm ε-PL, after 3 weeks): >8.09
CFU/g (4000 ppm ε-PL, after 4 weeks): 2.00E+00 CFU/g and <2.00E+00 CFU/g
average Log Value (4000 ppm ε-PL, after 4 weeks): <0.30
average of CFU/g (4000 ppm ε-PL, after 4 weeks): <2.00E+00 CFU/g
Log Reduction (4000 ppm ε-PL, after 4 weeks): >8.17
CFU/g (4000 ppm ε-PL, after 5 weeks): <2.00E+00 CFU/g
average Log Value (4000 ppm ε-PL, after 5 weeks): <0.30
average of CFU/g (4000 ppm ε-PL, after 5 weeks): <2.00E+00 CFU/g
Log Reduction (4000 ppm ε-PL, after 5 weeks): >8.12
CFU/g (4000 ppm ε-PL, after 7 weeks): <2.00E+00 CFU/g
average Log Value (4000 ppm ε-PL, after 7 weeks): <0.30
average of CFU/g (4000 ppm ε-PL, after 7 weeks): <2.00E+00 CFU/g
Log Reduction (4000 ppm ε-PL, after 7 weeks): >8.12
CFU/g (4000 ppm ε-PL, after 8 weeks): <2.00E+00 CFU/g
average Log Value (4000 ppm ε-PL, after 8 weeks): <0.30
average of CFU/g (4000 ppm ε-PL, after 8 weeks): <2.00E+00 CFU/g
Log Reduction (4000 ppm ε-PL, after 8 weeks): >8.03
average Log Value (4000 ppm ε-PL, after 3 hours): <1.17
average of CFU/g (4000 ppm ε-PL, after 3 hours): <1.47E+01 CFU/g
Log Reduction (4000 ppm ε-PL, after 3 hours): >1.62
average Log Value (4000 ppm ε-PL, after 24 hours): 1.29
average of CFU/g (4000 ppm ε-PL, after 24 hours): 1.93E+01 CFU/g
Log Reduction (4000 ppm ε-PL, after 24 hours): >2.44
average Log Value (5000 ppm ε-PL, after 1 week): 1.95
average of CFU/g (5000 ppm ε-PL, after 1 week): 8.87E+01 CFU/g
Log Reduction (5000 ppm ε-PL, after 1 week): 6.33
average Log Value (5000 ppm ε-PL, after 2 weeks): <0.30
average of CFU/g (5000 ppm ε-PL, after 2 weeks): <2.00E+00 CFU/g
Log Reduction (5000 ppm ε-PL, after 2 weeks): >7.99
CFU/g (5000 ppm ε-PL, after 3 weeks): <2.00E+00 CFU/g
average Log Value (5000 ppm ε-PL, after 3 weeks): <0.30
average of CFU/g (5000 ppm ε-PL, after 3 weeks): <2.00E+00 CFU/g
Log Reduction (5000 ppm ε-PL, after 3 weeks): >8.09
average Log Value (5000 ppm ε-PL, after 4 weeks): <0.30
average of CFU/g (5000 ppm ε-PL, after 4 weeks): <2.00E+00 CFU/g
Log Reduction (5000 ppm ε-PL, after 4 weeks): <8.17
CFU/g (5000 ppm ε-PL, after 5 weeks): <2.00E+00 CFU/g
average Log Value (5000 ppm ε-PL, after 5 weeks): <0.30
average of CFU/g (5000 ppm ε-PL, after 5 weeks): <2.00E+00 CFU/g
Log Reduction (5000 ppm ε-PL, after 5 weeks): >8.12
CFU/g (5000 ppm ε-PL, after 7 weeks): <2.00E+00 CFU/g
average Log Value (5000 ppm ε-PL, after 7 weeks): <0.30
average of CFU/g (5000 ppm ε-PL, after 7 weeks): <2.00E+00 CFU/g
Log Reduction (5000 ppm ε-PL, after 7 weeks): >8.12
CFU/g (5000 ppm ε-PL, after 8 weeks): <2.00E+00 CFU/g
average Log Value (5000 ppm ε-PL, after 8 weeks): <0.30
average of CFU/g (5000 ppm ε-PL, after 8 weeks): <2.00E+00 CFU/g
Log Reduction (5000 ppm ε-PL, after 8 weeks): >8.03
average Log Value (5000 ppm ε-PL, after 3 hours): 0.60
average of CFU/g (5000 ppm ε-PL, after 3 hours): 4.00E+00 CFU/g
Log Reduction (5000 ppm ε-PL, after 3 hours): 2.18
average Log Value (5000 ppm ε-PL, after 24 hours): 0.73
average of CFU/g (5000 ppm ε-PL, after 24 hours): 5.33E+00 CFU/g
Log Reduction (5000 ppm ε-PL, after 24 hours): >3.00
outgrowth of Listeria (final concentration of 3000 ppm in ground turkey, eight week period, 10° C.): completely inhibited the outgrowth of Listeria
